Columns and labels:
[1] = Metabolic stability in liver microsomes, human; type: in vitro ADME; conditions: 0.5 mg/mL microsomes, NADPH, 45 minutes, 37° C., read-out: Half-life in liver microsomes (t1/2, minutes)
Protocol: (§1) The test compound was incubated with liver microsomes (0.5 mg/mL) from CD-1 mouse, Sprague Dawley rat, Beagle dog, Cynomolgus monkey, and human in the presence of NADPH for 45 minutes at 37° C. The % parent remaining over time was determined by LC-MS/MS, using peak area ratios. Half-life (t1/2) was calculated using the following equation: t1/2=ln2/k, where k is the rate constant of parent decay over time (slope of the plot of log[% parent remaining] versus time).

[2] = Metabolic stability in liver microsome preparations, overall comparison; type: in vitro ADME; conditions: relative to comparator compounds 13 or 14/14b (WO2018207072)
Protocol: as §1

[3] = Metabolic stability in liver microsomes, dog; type: in vitro ADME; conditions: Beagle, 0.5 mg/mL microsomes, NADPH, 45 minutes, 37° C., read-out: Half-life in liver microsomes (t1/2, minutes)
Protocol: as §1

[4] = Mouse pharmacokinetics, single dose; type: in vivo, male C57BL/6 mice; conditions: for Kp / unbound brain-to-plasma ratio (Kp,uu): male, C57BL/6, mouse, brain and plasma, po, 10 mg/kg, based on AUC; for Kp / unbound brain-to-plasma ratio (Kp,uu) / clearance / half-life / Vd / AUC(0-t) / Cmax / bioavailability: male C57BL/6 mice; for Kp / unbound brain-to-plasma ratio (Kp,uu) / AUC(0-t) / Cmax / bioavailability: oral dose 10 mg/kg; for Kp: read-out: Brain/Plasma Ratio; for unbound brain-to-plasma ratio (Kp,uu): read-out: Free Brain/Plasma Ratio; for clearance / half-life / Vd / AUC(0-t) / Cmax / bioavailability: mouse; for clearance / half-life / Vd: in vivo, IV dose 0.3 mg/kg (1a, 4b, 13, 14b, 16; IV dose of 8a, 9b not stated); for Vd: read-out: Vss; for AUC(0-t) / Cmax / bioavailability: plasma; for clearance in mice, comparison in words / half-life in mice, comparison in words: relative to comparator compounds 13 or 14b
[5] = Metabolic stability in liver microsomes, monkey; type: in vitro ADME, Cynomolgus monkey; conditions: 0.5 mg/mL microsomes, NADPH, 45 minutes, 37° C., read-out: Half-life in liver microsomes (t1/2, minutes)
Protocol: as §1

[6] = Metabolic stability in liver microsomes, rat; type: in vitro ADME; conditions: Sprague Dawley, 0.5 mg/mL microsomes, NADPH, 45 minutes, 37° C., read-out: Half-life in liver microsomes (t1/2, minutes)
Protocol: as §1

human DLK = human DLK (Homo sapiens (Human), UniProt Q12852); assay: DLK Kd determination (KINOMEscan KdELECT, DiscoveRx); type: binding; conditions: read-out: Kd
Protocol: The DLK dissociation constants (Kd) have been determined in the KINOMEscan KdELECT Service at DiscoveRx.
A fusion protein of full length of human DLK (amino acids 1-859) and the DNA binding domain of NFkB was expressed in transiently transfected HEK293 cells. From these HEK 293 cells, extracts were prepared in M-PER extraction buffer (Pierce) in the presence of Protease Inhibitor Cocktail Complete (Roche) and Phosphatase Inhibitor Cocktail Set II (Merck) per manufacturers' instructions. The DLK fusion protein was labeled with a chimeric double-stranded DNA tag containing the NFkB binding site (5′-[sequence]-3′, SEQ ID NO:1) fused to an amplicon for qPCR readout, which was added directly to the expression extract (the final concentration of DNA-tag in the binding reaction is 0.1 nM).
The liganded beads were blocked with excess biotin and washed with blocking buffer (SeaBlock (Pierce), 1% BSA, 0.05% Tween 20, 1 mM DTT) to remove unbound ligand and to reduce nonspecific binding.
Extracts were used directly in binding assays without any enzyme purification steps at a >10,000-fold overall stock dilution (final DNA-tagged enzyme concentration <0.1 nM). Extracts were loaded with DNA-tag and diluted into the binding reaction in a two step process. First extracts were diluted 1:100 in 1× binding buffer (PBS/0.05% Tween 20/10 mM DTT/0.1% BSA/2 μg/ml sonicated salmon sperm DNA) containing 10 nM DNA-tag. This dilution was allowed to equilibrate at room temperature for 15 minutes and then subsequently diluted 1:100 in 1× binding buffer. Test compounds were prepared as 111× stocks in 100% DMSO. Kds were determined using an 11-point 3-fold compound dilution series with three DMSO control points. […] The compounds were then diluted directly into the assays such that the final concentration of DMSO was 0.9%. All reactions performed in polypropylene 384-well plates. Each was a final volume of 0.02 mL. Assays were incubated with shaking for 1 hour at room temperature. Then the beads were pelleted and washed with wash buffer (1×PBS, 0.05% Tween 20) to remove displaced kinase and test compound. […] The kinase concentration in the eluates was measured by qPCR. qPCR reactions were assembled by adding 2.5 μL of kinase eluate to 7.5 μL of qPCR master mix containing 0.15 μM amplicon primers and 0.15 μM amplicon probe.
Test compounds were prepared as 111× stocks in 100% DMSO. Kds were determined using an 11-point 3-fold compound dilution series with three DMSO control points. […] The compounds were then diluted directly into the assays such that the final concentration of DMSO was 0.9%. The Kds were determined using a compound top concentration of 30,000 nM. Kd measurements were performed in duplicate.
Binding constants (Kds) were calculated with a standard dose-response curve using the Hill equation:
The Hill Slope was set to −1.

[7] = Metabolic stability in liver microsomes, mouse; type: in vitro ADME, CD-1 mouse; conditions: CD-1, liver microsomes, 0.5 mg/mL microsomes, NADPH, 45 minutes, 37° C., read-out: Half-life in liver microsomes (t1/2, minutes)
Protocol: as §1

[8] = Rat pharmacokinetics, single dose; type: in vivo, Wistar Han rats; conditions: for clearance / half-life / Vd / AUC(0-t) / Cmax / bioavailability: rat, in vivo, Wistar Han rats; for clearance / half-life / Vd: IV dose 1 mg/kg; for Vd: read-out: Vss; for AUC(0-t) / Cmax / bioavailability: oral dose 3 mg/kg; for clearance in rats, comparison in words / half-life in rats, comparison in words: relative to comparator compound 13
Protocol: Pharmacokinetics for compounds 13, 1a, and 9b were determined using single dosage of Wistar Han rats using techniques that are well known in the art.

human DLK, sequence (Q12852 whole entry): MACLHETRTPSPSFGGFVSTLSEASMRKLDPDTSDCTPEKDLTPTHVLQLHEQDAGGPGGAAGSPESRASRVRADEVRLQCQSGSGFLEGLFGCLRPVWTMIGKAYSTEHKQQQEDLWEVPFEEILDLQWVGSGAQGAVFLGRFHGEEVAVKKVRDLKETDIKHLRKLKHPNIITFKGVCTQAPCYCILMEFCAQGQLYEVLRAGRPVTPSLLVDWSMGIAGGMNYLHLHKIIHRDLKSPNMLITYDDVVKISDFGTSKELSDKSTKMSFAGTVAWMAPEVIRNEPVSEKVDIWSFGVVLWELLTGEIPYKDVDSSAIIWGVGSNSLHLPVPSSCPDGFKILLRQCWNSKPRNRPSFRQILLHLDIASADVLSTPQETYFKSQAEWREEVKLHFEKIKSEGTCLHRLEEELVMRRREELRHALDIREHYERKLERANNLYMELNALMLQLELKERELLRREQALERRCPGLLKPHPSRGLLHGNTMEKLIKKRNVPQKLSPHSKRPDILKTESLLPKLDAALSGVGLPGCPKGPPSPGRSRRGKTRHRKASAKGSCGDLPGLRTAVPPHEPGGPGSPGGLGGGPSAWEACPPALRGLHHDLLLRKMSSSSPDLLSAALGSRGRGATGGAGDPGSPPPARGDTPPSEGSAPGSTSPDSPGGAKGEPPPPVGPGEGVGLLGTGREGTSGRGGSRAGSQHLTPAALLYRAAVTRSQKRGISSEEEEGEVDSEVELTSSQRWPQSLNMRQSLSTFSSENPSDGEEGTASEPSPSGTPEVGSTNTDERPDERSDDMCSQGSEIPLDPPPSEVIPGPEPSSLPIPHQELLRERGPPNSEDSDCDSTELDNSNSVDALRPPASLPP

| Structure (SMILES) | half-life [1] [min] | microsomal stability, comparison in words [2] | half-life [3] [min] | Kp [4] | unbound brain-to-plasma ratio (Kp,uu) [4] | clearance [4] [mL/min/kg] | half-life [4] [h] | Vd [4] [L/kg] | AUC(0-t) [4] [µM·h] | Cmax [4] [nM] | bioavailability [4] [%] | clearance in mice, comparison in words [4] | half-life in mice, comparison in words [4] | half-life [5] [min] | half-life [6] [min] | Kd (human DLK) [nM] | half-life [7] [min] | clearance [8] [mL/min/kg] | half-life [8] [h] | Vd [8] [L/kg] | further results |
| --- | --- | --- | --- | --- | --- | --- | --- | --- | --- | --- | --- | --- | --- | --- | --- | --- | --- | --- | --- | --- | --- |
| Nc1ncc(-c2cn(C34CC(F)(C3)C4)c([C@@H](O)C(F)(F)F)n2)cc1OC(F)(F)F (single isomer, unassigned) [Example 1a] | 558 | improvements to microsomal stability | 287 | 1.77 | 0.92 | 4.3 | 12.7 | 4.5 | 111 | 6360 | 154 | reduced clearance | longer half-life | 182 | 154 | 2.2 | 378 | 5.9 | 11.5 | 4.9 | AUC(0-t) [8]: 16.8 µM·h; Cmax [8]: 1310 nM; bioavailability [8]: 103%; clearance in rats, comparison in words [8]: reduced clearance; half-life in rats, comparison in words [8]: longer half-life |
| Nc1ncc(-c2cn(C34CC(N5CCC(F)(F)CC5)(C3)C4)c([C@H](O)C(F)(F)F)n2)cc1OC(F)(F)F (single isomer, unassigned) [Example 9b] | 297 | improvements to microsomal stability | 240 | 0.7 | 0.31 | 3.9 | 15.9 | 4.8 | 39.6 | 2310 | 70.5 | reduced clearance | longer half-life | 331 | 581 | 1 | 240 | 2.8 | 22.7 | 4.7 | AUC(0-t) [8]: 19.2 µM·h; Cmax [8]: 1050 nM; bioavailability [8]: 95.9%; clearance in rats, comparison in words [8]: reduced clearance; half-life in rats, comparison in words [8]: longer half-life |

Reference: patent publication US11560366B2, “Bicyclo[1.1.1]pentane inhibitors of dual leucine zipper (DLK) kinase for the treatment of disease” (Board of Regents, The University of Texas System, priority 2019, dated 2023)
